# Source: PubChem BioAssay (NCI)
#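 Test compounds were applied to cells in 96-well plates for 48 hours at 5 doses. GI50 marks 50% less growth. TGI denotes the concentration required for complete inhibition of growth.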
# Assays:
# Assay in all cases: NCI tumour cell line growth inhibition, 48 h
# NCI-H226 lung = system: NCI-H226 lung
# NCI-H23 lung = system: NCI-H23 lung
# NCI-H460 lung = system: NCI-H460 lung
# NCI-H522 lung = system: NCI-H522 lung
# NCI/ADR-RES ovarian = system: NCI/ADR-RES ovarian
# OVCAR-3 ovarian = system: OVCAR-3 ovarian
# OVCAR-4 ovarian = system: OVCAR-4 ovarian
# OVCAR-5 ovarian = system: OVCAR-5 ovarian
# OVCAR-8 ovarian = system: OVCAR-8 ovarian
# PC-3 prostate = system: PC-3 prostate
# RPMI-8226 leukemia = system: RPMI-8226 leukemia
# RXF 393 renal = system: RXF 393 renal
# SF-268 CNS = system: SF-268 CNS
# SF-295 CNS = system: SF-295 CNS
# SF-539 CNS = system: SF-539 CNS
# SK-MEL-2 melanoma = system: SK-MEL-2 melanoma
# SK-MEL-28 melanoma = system: SK-MEL-28 melanoma
# SK-MEL-5 melanoma = system: SK-MEL-5 melanoma
# SK-OV-3 ovarian = system: SK-OV-3 ovarian
# SN12C renal = system: SN12C renal
# SNB-19 CNS = system: SNB-19 CNS
# SNB-75 CNS = system: SNB-75 CNS
# SR leukemia = system: SR leukemia
# SW-620 colon = system: SW-620 colon
# T-47D breast = system: T-47D breast
# TK-10 renal = system: TK-10 renal
# U251 CNS = system: U251 CNS
# UACC-257 melanoma = system: UACC-257 melanoma
# UACC-62 melanoma = system: UACC-62 melanoma
# UO-31 renal = system: UO-31 renal
smiles,measurement,setting,value
CC1(c2ccccc2)NC(=O)N(CC(=O)Nc2ccc(C(=O)/C=C/c3ccccc3)cc2)C1=O (centres undefined),TGI,NCI-H226 lung,78.1 µM
same,GI50,NCI-H23 lung,13.9 µM
same,TGI,NCI-H23 lung,28.9 µM
same,GI50,NCI-H460 lung,15.5 µM
same,TGI,NCI-H460 lung,41 µM
same,GI50,NCI-H522 lung,11.1 µM
same,TGI,NCI-H522 lung,27.4 µM
same,GI50,NCI/ADR-RES ovarian,21.8 µM
same,TGI,NCI/ADR-RES ovarian,82.3 µM
same,GI50,OVCAR-3 ovarian,11.8 µM
same,TGI,OVCAR-3 ovarian,26.8 µM
same,GI50,OVCAR-4 ovarian,13.3 µM
same,TGI,OVCAR-4 ovarian,96.3 µM
same,GI50,OVCAR-5 ovarian,16.5 µM
same,TGI,OVCAR-5 ovarian,36.6 µM
same,GI50,OVCAR-8 ovarian,16.8 µM
same,TGI,OVCAR-8 ovarian,64.3 µM
same,GI50,PC-3 prostate,7.74 µM
same,TGI,PC-3 prostate,51.9 µM
same,GI50,RPMI-8226 leukemia,2.27 µM
same,TGI,RPMI-8226 leukemia,6.85 µM
same,GI50,RXF 393 renal,5.81 µM
same,TGI,RXF 393 renal,21.6 µM
same,GI50,SF-268 CNS,12.4 µM
same,TGI,SF-268 CNS,48.6 µM
same,GI50,SF-295 CNS,11.9 µM
same,TGI,SF-295 CNS,26.3 µM
same,GI50,SF-539 CNS,12.9 µM
same,TGI,SF-539 CNS,25.9 µM
same,GI50,SK-MEL-2 melanoma,12.8 µM
same,TGI,SK-MEL-2 melanoma,33.9 µM
same,GI50,SK-MEL-28 melanoma,14.3 µM
same,TGI,SK-MEL-28 melanoma,29.1 µM
same,GI50,SK-MEL-5 melanoma,7.59 µM
same,TGI,SK-MEL-5 melanoma,20.4 µM
same,GI50,SK-OV-3 ovarian,17.9 µM
same,TGI,SK-OV-3 ovarian,52.2 µM
same,GI50,SN12C renal,11.5 µM
same,TGI,SN12C renal,35 µM
same,GI50,SNB-19 CNS,14 µM
same,TGI,SNB-19 CNS,35.6 µM
same,GI50,SNB-75 CNS,3 µM
same,TGI,SNB-75 CNS,41.7 µM
same,GI50,SR leukemia,3.1 µM
same,TGI,SR leukemia,> 100 µM
same,GI50,SW-620 colon,15.1 µM
same,TGI,SW-620 colon,34.9 µM
same,GI50,T-47D breast,3.17 µM
same,TGI,T-47D breast,29.2 µM
same,GI50,TK-10 renal,17.8 µM
same,TGI,TK-10 renal,68.2 µM
same,GI50,U251 CNS,6.17 µM
same,TGI,U251 CNS,21.3 µM
same,GI50,UACC-257 melanoma,13.1 µM
same,TGI,UACC-257 melanoma,27.4 µM
same,GI50,UACC-62 melanoma,6.52 µM
same,TGI,UACC-62 melanoma,23 µM
same,GI50,UO-31 renal,10.3 µM
same,TGI,UO-31 renal,23.9 µM
